Paper PMC6009956, “Design, synthesis and biological activity of N^4-phenylsubstituted-7H-pyrrolo[2,3-d]pyrimidin-4-amines as dual inhibitors of aurora kinase A and epidermal growth factor receptor kinase” (Journal of Enzyme Inhibition and Medicinal Chemistry, 2017)
Read-outs that look alike come from different tables or passages of the source.

What was measured:
[1] = target: EGFR (Homo sapiens, UniProt P00533); assay: ADP-Glo kinase assay, EGFR; assay type: biochemical; parameters: purchased BPS Bioscience (assay run externally by the vendor)
Sequence of EGFR (P00533 25-1210): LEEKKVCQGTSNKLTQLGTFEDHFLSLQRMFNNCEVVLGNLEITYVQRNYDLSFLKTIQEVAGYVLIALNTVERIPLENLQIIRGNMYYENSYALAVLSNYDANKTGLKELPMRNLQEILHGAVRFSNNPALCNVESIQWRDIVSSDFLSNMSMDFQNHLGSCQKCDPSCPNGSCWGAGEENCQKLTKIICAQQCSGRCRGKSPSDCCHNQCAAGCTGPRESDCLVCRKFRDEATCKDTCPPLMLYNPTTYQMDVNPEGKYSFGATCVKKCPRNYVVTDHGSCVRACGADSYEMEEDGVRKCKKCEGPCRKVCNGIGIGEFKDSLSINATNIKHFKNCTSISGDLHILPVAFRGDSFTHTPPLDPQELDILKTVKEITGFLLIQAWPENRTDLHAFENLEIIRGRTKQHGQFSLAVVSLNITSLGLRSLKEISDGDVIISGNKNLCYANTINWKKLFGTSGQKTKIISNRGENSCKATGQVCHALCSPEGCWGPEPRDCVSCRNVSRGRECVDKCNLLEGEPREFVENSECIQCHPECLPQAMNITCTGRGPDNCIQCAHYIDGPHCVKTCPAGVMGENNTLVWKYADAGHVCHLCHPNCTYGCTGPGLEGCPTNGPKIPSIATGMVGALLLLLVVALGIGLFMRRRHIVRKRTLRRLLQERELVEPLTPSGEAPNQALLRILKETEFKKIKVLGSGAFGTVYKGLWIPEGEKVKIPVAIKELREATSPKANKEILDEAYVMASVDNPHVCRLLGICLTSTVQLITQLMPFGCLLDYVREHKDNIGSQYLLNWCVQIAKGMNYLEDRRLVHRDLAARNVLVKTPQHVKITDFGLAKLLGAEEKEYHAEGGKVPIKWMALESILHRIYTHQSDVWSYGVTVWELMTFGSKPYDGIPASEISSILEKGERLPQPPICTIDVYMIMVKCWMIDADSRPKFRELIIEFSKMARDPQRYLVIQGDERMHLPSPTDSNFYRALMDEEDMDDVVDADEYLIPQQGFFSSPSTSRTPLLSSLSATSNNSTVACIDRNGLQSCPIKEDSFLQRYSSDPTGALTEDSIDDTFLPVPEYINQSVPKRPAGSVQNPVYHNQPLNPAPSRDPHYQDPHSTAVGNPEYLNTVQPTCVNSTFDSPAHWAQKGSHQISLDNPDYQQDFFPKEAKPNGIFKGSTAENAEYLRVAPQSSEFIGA

[2] = target: T1, aurora A kinase (AURKA) (Homo sapiens, UniProt O14965); assay: ADP-Glo kinase assay, Aurora A; assay type: biochemical
T1 construct: purchased BPS Bioscience (assay run externally by the vendor)
T1 sequence (O14965 1-403): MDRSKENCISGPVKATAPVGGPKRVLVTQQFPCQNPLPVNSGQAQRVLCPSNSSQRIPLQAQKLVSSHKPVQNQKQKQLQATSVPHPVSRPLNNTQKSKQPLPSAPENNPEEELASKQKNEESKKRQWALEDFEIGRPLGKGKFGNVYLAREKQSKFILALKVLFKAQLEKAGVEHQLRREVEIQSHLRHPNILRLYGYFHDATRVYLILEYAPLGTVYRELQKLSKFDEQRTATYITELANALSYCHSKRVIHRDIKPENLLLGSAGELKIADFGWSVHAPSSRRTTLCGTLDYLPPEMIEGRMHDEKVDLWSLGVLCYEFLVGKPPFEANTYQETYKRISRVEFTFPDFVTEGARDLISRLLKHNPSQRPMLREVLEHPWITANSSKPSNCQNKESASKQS

IC50 ([1]; 10 µM ATP, triplicate, read-out: EGFR IC50 ± SD): 0.471 ± 0.114 µM
IC50 ([1]; 10 µM ATP/0.2 mg/ml Poly-Glu-Tyr, read-out: EGFR IC50 (dose-response curve, supplement)): 0.471 µM
EGFR % Activity Set1 ([1]; Log[nM] 0): 100%
EGFR % Activity Set2 ([1]; Log[nM] 0): 95%
EGFR % Activity Set3 ([1]; Log[nM] 0): 94%
EGFR % Activity Set1 ([1]; Log[nM] 1.0): 105%
EGFR % Activity Set2 ([1]; Log[nM] 1.0): 90%
EGFR % Activity Set3 ([1]; Log[nM] 1.0): 96%
EGFR % Activity Set1 ([1]; Log[nM] 1.5): 108%
EGFR % Activity Set2 ([1]; Log[nM] 1.5): 83%
EGFR % Activity Set3 ([1]; Log[nM] 1.5): 93%
EGFR % Activity Set1 ([1]; Log[nM] 2.0): 89%
EGFR % Activity Set2 ([1]; Log[nM] 2.0): 75%
EGFR % Activity Set3 ([1]; Log[nM] 2.0): 84%
EGFR % Activity Set1 ([1]; Log[nM] 2.5): 62%
EGFR % Activity Set2 ([1]; Log[nM] 2.5): 53%
EGFR % Activity Set3 ([1]; Log[nM] 2.5): 57%
EGFR % Activity Set1 ([1]; Log[nM] 3.0): 36%
EGFR % Activity Set2 ([1]; Log[nM] 3.0): 27%
EGFR % Activity Set3 ([1]; Log[nM] 3.0): 33%
EGFR % Activity Set1 ([1]; Log[nM] 3.5): 16%
EGFR % Activity Set2 ([1]; Log[nM] 3.5): 14%
EGFR % Activity Set3 ([1]; Log[nM] 3.5): 16%
EGFR % Activity Set1 ([1]; Log[nM] 4.0): 8%
EGFR % Activity Set2 ([1]; Log[nM] 4.0): 6%
EGFR % Activity Set3 ([1]; Log[nM] 4.0): 7%
EGFR % Activity Set1 ([1]; Log[nM] 4.5): 4%
EGFR % Activity Set2 ([1]; Log[nM] 4.5): 3%
EGFR % Activity Set3 ([1]; Log[nM] 4.5): 3%
EGFR % Activity Set1 ([1]; Log[nM] 5.0): 5%
EGFR % Activity Set2 ([1]; Log[nM] 5.0): 4%
EGFR % Activity Set3 ([1]; Log[nM] 5.0): 4%
IC50 ([2]; 10 µM ATP, triplicate, read-out: AURKA IC50 ± SD): 5.66 ± 0.43 µM
IC50 ([2]; 10 µM ATP/0.2 mg/ml Kemptide, read-out: Aurora A IC50 (dose-response curve, supplement)): 5.7 µM
Aurora A % Activity Set1 ([2]; Log[nM] 0): 97%
Aurora A % Activity Set2 ([2]; Log[nM] 0): 92%
Aurora A % Activity Set3 ([2]; Log[nM] 0): 94%
Aurora A % Activity Set1 ([2]; Log[nM] 1.0): 102%
Aurora A % Activity Set2 ([2]; Log[nM] 1.0): 97%
Aurora A % Activity Set3 ([2]; Log[nM] 1.0): 98%
Aurora A % Activity Set1 ([2]; Log[nM] 1.5): 111%
Aurora A % Activity Set2 ([2]; Log[nM] 1.5): 96%
Aurora A % Activity Set3 ([2]; Log[nM] 1.5): 98%
Aurora A % Activity Set1 ([2]; Log[nM] 2.0): 103%
Aurora A % Activity Set2 ([2]; Log[nM] 2.0): 98%
Aurora A % Activity Set3 ([2]; Log[nM] 2.0): 102%
Aurora A % Activity Set1 ([2]; Log[nM] 2.5): 101%
Aurora A % Activity Set2 ([2]; Log[nM] 2.5): 106%
Aurora A % Activity Set3 ([2]; Log[nM] 2.5): 101%
Aurora A % Activity Set1 ([2]; Log[nM] 3.0): 87%
Aurora A % Activity Set2 ([2]; Log[nM] 3.0): 86%
Aurora A % Activity Set3 ([2]; Log[nM] 3.0): 93%
Aurora A % Activity Set1 ([2]; Log[nM] 3.5): 73%
Aurora A % Activity Set2 ([2]; Log[nM] 3.5): 68%
Aurora A % Activity Set3 ([2]; Log[nM] 3.5): 73%
Aurora A % Activity Set1 ([2]; Log[nM] 4.0): 28%
Aurora A % Activity Set2 ([2]; Log[nM] 4.0): 25%
Aurora A % Activity Set3 ([2]; Log[nM] 4.0): 27%
Aurora A % Activity Set1 ([2]; Log[nM] 4.5): 14%
Aurora A % Activity Set2 ([2]; Log[nM] 4.5): 13%
Aurora A % Activity Set3 ([2]; Log[nM] 4.5): 14%
Aurora A % Activity Set1 ([2]; Log[nM] 5.0): 13%
Aurora A % Activity Set2 ([2]; Log[nM] 5.0): 11%
Aurora A % Activity Set3 ([2]; Log[nM] 5.0): 14%
Compound: Clc1ccccc1Nc1ncnc2[nH]ccc12 [Compound 14, N^4-(2-chlorophenyl)-7H-pyrrolo[2,3-d]pyrimidin-4-amine]
